Experimental findings from ChEMBL document CHEMBL1201862, “PubChem BioAssay data set” (2004) are described below.

Some test systems named below: TK-10; LOX IMVI; Malme-3M; OVCAR-8; HCT-116; HOP-62; PC-3; HOP-92; CAKI-1; RXF 393; NCI-H522; T47D; ACHN; HL-60; SK-OV-3; MOLT-4; K562; KM12; UACC-257; OVCAR-5.
Test in all cases: DTP human tumour cell line panel, 48 h

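Tested at 5 concentrations; 48 h exposure; 96-well plates; endpoints linearly interpolated, else capped at highest concentration. The concentration for 50% growth inhibition is given as GI50.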 Calls of active or inactive are those of the source. Rule as the data show it: active = GI50 up to about 1.1 µM and inactive = higher.

Regarding `N#C/C(=C\Nc1ccccn1)C(=O)C1CC1`, the GI50 in the assay on TK-10, in the assay on LOX IMVI, in the assay on Malme-3M, in the assay on OVCAR-8, in the assay on HCT-116 and in the assay on HOP-62 was > 100 µM (inactive) in each case. Besides, the GI50 in the assay with PC-3, in the assay on HOP-92, in the assay with CAKI-1, in the assay on RXF 393, in the assay with NCI-H522 and in the assay on T47D was > 100 µM (inactive) in each case. The GI50 with ACHN, with HL-60, in the assay on SK-OV-3, in the assay on MOLT-4, in the assay on K562 and with KM12 was > 100 µM (inactive) each time. The GI50 in the assay on UACC-257 and in the assay on OVCAR-5 was > 100 µM (inactive) each time.

`N#CC(C#N)=Cc1c(O)ccc2ccccc12`: the GI50 (commonly the concentration giving 50% growth inhibition) is 18.1 µM (inactive) with TK-10; 12.1 µM (inactive) in the assay on LOX IMVI; 17 µM (inactive) with Malme-3M; 16.3 µM (inactive) with OVCAR-8; 11.4 µM (inactive) in the assay on HCT-116; 20.6 µM (inactive) in the assay on HOP-62. For the same compound, the GI50 in the assay on PC-3 is 17.5 µM (inactive); in the assay with HOP-92 it was 0.422 µM (active); with CAKI-1 it was 14.1 µM (inactive); with RXF 393 it was 15.2 µM (inactive); in the assay with NCI-H522, 9.93 µM (inactive); with T47D, 13.3 µM (inactive). Further, the GI50 in the assay on ACHN is 10.4 µM (inactive); in the assay on HL-60, 2.99 µM (inactive); in the assay with SK-OV-3, 15.8 µM (inactive); in the assay on MOLT-4, 2.18 µM (inactive); in the assay with K562, 4.05 µM (inactive); in the assay with KM12, 17.8 µM (inactive). For the same compound, the results for the GI50 with UACC-257 and in the assay with OVCAR-5 were 16.8 µM (inactive) and 17 µM (inactive), respectively.
